Test results as given in US8735438B2, “Substituted-aryl-2-phenylethyl-1H-imidazole compounds as subtype selective modulators of alpha 2B and/or alpha 2C adrenergic receptors” (Allergan, Inc., priority 2008, dated 2014).
pEC50: −log10 of the molar value. Read-outs that look alike come from different tables or passages of the source.

Legend:
Type in all cases: cell-based
alpha 2A receptor = target: T1, alpha 2A receptor (Homo sapiens, UniProt P08913); assay: RSAT (Receptor Selection and Amplification Technology) assay, alpha 2A; conditions: NIH-3T3 cells cotransfected with receptor and Gq/i5; ratio of maximal effect to that of standard full agonist brimonidine (UK14304)
T1 construct: expressed in transfected cells; host or cells: NIH-3T3 cells
T1 sequence (P08913 1-465): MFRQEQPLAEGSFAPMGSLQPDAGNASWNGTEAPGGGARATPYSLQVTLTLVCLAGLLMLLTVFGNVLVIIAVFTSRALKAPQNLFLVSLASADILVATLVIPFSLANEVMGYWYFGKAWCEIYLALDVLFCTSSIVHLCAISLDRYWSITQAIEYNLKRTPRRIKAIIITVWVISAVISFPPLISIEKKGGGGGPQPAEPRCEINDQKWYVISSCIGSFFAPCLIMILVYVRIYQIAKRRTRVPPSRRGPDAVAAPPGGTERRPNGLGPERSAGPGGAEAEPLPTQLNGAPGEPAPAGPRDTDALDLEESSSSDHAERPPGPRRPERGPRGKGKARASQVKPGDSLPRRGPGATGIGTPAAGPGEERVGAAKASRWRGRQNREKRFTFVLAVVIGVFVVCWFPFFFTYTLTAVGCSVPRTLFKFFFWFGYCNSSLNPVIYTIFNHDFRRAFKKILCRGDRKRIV
Excerpt: The compounds disclosed herein are agonists of alpha 2B/2C adrenergic receptors. […] 76, pp. 308-311 (incorporated herein by reference) and is also described below. Another reference pertinent to this assay is Conklin et al. (1993) Nature 363: 274-6, also incorporated herein by reference.
(§1) The RSAT assay measures a receptor-mediated loss of contact inhibition that results in selective proliferation of receptor-containing cells in a mixed population of confluent cells. The increase in cell number is assessed with an appropriate transfected marker gene such as β-galactosidase, the activity of which can be easily measured in a 96-well format. Receptors that activate the G protein, Gq, elicit this response. Alpha 2 receptors, which normally couple to Gi, activate the RSAT response when coexpressed with a hybrid Gq protein that has a Gi receptor recognition domain, called Gq/i5.
(§2) NIH-3T3 cells are plated at a density of 2×10^6 cells in 15 cm dishes and maintained in Dulbecco's modified Eagle's medium supplemented with 10% calf serum. One day later, cells are cotransfected by calcium phosphate precipitation with mammalian expression plasmids encoding p-SV-β-galactosidase (5-10 μg), receptor (1-2 μg) and G protein (1-2 μg). 40 μg salmon sperm DNA may also be included in the transfection mixture. Fresh media is added on the following day and 1-2 days later, cells are harvested and frozen in 50 assay aliquots. Cells are thawed and 100 μl added to 100 μl aliquots of various concentrations of drugs in triplicate in 96-well dishes. Incubations continue 72-96 hr at 37° C. After washing with phosphate-buffered saline, .E-backward.-galactosidase enzyme activity is determined by adding 200 μl of the chromogenic substrate (consisting of 3.5 mM o-nitrophenyl-beta-D-galactopyranoside and 0.5% nonidet P-40 in phosphate buffered saline), incubating overnight at 30° C. and measuring optical density at 420 nm. The absorbance is a measure of enzyme activity, which depends on cell number and reflects a receptor-mediated cell proliferation. The efficacy or intrinsic activity is calculated as a ratio of the maximal effect of the drug to the maximal effect of a standard full agonist for each receptor subtype. Brimonidine, also called UK14304, the chemical structure of which is shown below, is used as the standard agonist for the alpha 2A, alpha 2B and alpha 2C receptors.

alpha 2B receptor = target: T2, alpha 2B receptor (Homo sapiens, UniProt P18089); assay: RSAT (Receptor Selection and Amplification Technology) assay, alpha 2B; conditions: for Alpha 2B intrinsic activity (efficacy), value in parentheses / EC50: NIH-3T3 cells cotransfected with receptor and Gq/i5; for Alpha 2B intrinsic activity (efficacy), value in parentheses: ratio of maximal effect to that of standard full agonist brimonidine (UK14304); for EC50: read-out: Alpha 2B potency nM (EC50)
T2 construct: expressed in transfected cells; host or cells: NIH-3T3 cells
T2 sequence (P18089 1-450): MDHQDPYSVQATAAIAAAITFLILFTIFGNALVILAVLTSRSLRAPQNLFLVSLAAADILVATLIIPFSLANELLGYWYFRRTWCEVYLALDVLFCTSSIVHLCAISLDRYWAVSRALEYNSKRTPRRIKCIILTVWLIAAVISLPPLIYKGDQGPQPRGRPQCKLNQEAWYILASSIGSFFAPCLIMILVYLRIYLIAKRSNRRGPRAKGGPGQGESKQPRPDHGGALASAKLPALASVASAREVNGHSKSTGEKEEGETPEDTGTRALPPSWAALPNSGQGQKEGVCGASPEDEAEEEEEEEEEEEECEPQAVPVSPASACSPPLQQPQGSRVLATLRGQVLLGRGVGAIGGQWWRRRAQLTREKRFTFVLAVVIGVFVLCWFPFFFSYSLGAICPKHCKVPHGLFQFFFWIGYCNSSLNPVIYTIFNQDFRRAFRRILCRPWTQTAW
Method: as §1, §2

alpha 2C receptor = target: T3, alpha 2C receptor (Homo sapiens, UniProt P18825); assay: RSAT (Receptor Selection and Amplification Technology) assay, alpha 2C; conditions: for Alpha 2C intrinsic activity (efficacy), value in parentheses: ratio of maximal effect to that of standard full agonist brimonidine (UK14304)
T3 construct: expressed in transfected cells; host or cells: NIH-3T3 cells
T3 sequence (P18825 1-462): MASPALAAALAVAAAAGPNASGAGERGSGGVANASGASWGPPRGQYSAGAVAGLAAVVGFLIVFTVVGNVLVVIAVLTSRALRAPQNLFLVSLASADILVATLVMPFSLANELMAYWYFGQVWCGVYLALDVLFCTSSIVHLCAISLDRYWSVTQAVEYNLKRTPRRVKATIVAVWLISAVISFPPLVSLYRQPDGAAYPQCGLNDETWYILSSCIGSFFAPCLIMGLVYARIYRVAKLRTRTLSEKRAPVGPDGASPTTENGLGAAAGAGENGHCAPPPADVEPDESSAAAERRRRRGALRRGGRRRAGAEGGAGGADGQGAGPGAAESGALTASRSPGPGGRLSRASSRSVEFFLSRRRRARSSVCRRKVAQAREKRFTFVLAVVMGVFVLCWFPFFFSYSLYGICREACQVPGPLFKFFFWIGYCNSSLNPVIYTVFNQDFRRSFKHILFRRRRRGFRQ
Method: as §1, §2

[1] = NIH-3T3 cells cotransfected with receptor and Gq/i5

| SMILES | Alpha 2A intrinsic activity (efficacy), value in parentheses (alpha 2A receptor) | Alpha 2B intrinsic activity (efficacy), value in parentheses (alpha 2B receptor) | EC50 (alpha 2B receptor) [nM] | Alpha 2C intrinsic activity (efficacy), value in parentheses (alpha 2C receptor; [1]) | pEC50 (alpha 2B receptor) | pEC50 (alpha 2C receptor) | EC50 (alpha 2C receptor; NIH-3T3 cells cotransfected with receptor and Gq/i5, read-out: Alpha 2C potency nM (EC50)) [nM] |
| --- | --- | --- | --- | --- | --- | --- | --- |
| Cc1ccccc1C(Cc1ccccc1)c1c[nH]cn1 (stereo not shown) | No Data (.10) | .69 | 101 | No Data (.21) | – | – | – |
| Cc1cccc(C(Cc2ccccc2)c2c[nH]cn2)c1C (stereo not shown) | No Data (.28) | 1.01 | – | .36 | 8.68 | 7.59 | – |
| Clc1cccc(C(Cc2ccccc2)c2c[nH]cn2)c1Cl (stereo not shown) | No Data (.21) | .97 | 8.4 | .41 | – | – | 41 |
| Clc1cccc(/C(=C/c2ccccc2)c2c[nH]cn2)c1 | No Data (.09) | .80 | – | No Data (.19) | 8.11 | – | – |
| Fc1cccc(C(Cc2ccccc2)c2c[nH]cn2)c1F (stereo not shown) | No Data (.04) | .53 | 4.4 | No Data (.17) | – | – | – |
| c1ccc(CC(c2ccncc2)c2c[nH]cn2)cc1 (stereo not shown) | No Data (.02) | .74 | – | No Data (.09) | 7.18 | – | – |
| Fc1ccccc1C(Cc1ccccc1)c1c[nH]cn1 (stereo not shown) | No Data (.04) | .43 | – | No Data (.18) | 8.46 | – | – |
| c1ccc(CC(c2ccccc2)c2c[nH]cn2)cc1 (stereo not shown) | No Data (.05) | .69 | – | No Data (.10) | 8.55 | – | – |
